# Laboratory results from paper PMC8234359, “Pharmacokinetics in Zebrafish Embryos (ZFE) Following Immersion and Intrayolk Administration: A Fluorescence-Based Analysis” (Pharmaceuticals, 2021).
# Legend:
# [1] = Immersion of two-cell stage zebrafish embryos (10 µM), spatiotemporal fluorescence imaging and non-compartmental AUC; type: in vivo, zebrafish (Danio rerio); conditions: immersion 10 µM; for AUC-RoB IMM (AUC0.25–72h): rest of body (non-yolk); for AUC-RoB IMM (AUC0.25–72h) / AUC-WB IMM (AUC0.25–72h) / AUC-Yolk IMM (AUC0.25–72h): 0.25 to 72 h; for AUC-WB IMM (AUC0.25–72h): whole body; for intrabody accumulation on longer incubations: 24–72 h
# Procedure: Immersion treatment: zebrafish embryos at the two-cell stage were immersed in Danieau’s medium containing the compound. A compound concentration of 10 µM and DMSO concentration of 0.1% (v/v) in a volume of 5 mL was used per well (6-well-plates). At 72 h, the zebrafish medium containing the compound was removed, and the animals rinsed 3 × with Danieau’s medium. Next, the embryos were kept for another 48 h in Danieau’s medium supplemented with DMSO (0.1%, v/v) in the absence of compound. In the case of control experiments, the embryos were exposed to Danieau’s medium supplemented with DMSO (0.1%, v/v).
# Animals were kept in dark conditions in an incubator at 28.5 °C for defined time-periods (0.25, 1, 3, 6, 24, 48, 72, 96, and 120 h) before image analysis in a dark room. To acquire images, a Leica MZ10F fluorescent stereomicroscope (Leica Microsystems Inc., Buffalo Grove, IL, USA) with a 4.0× planapochromatic objective (10447243) was used, equipped with a Digital Color Camera Leica DFC310 FX (Software LAS 4.13, Leica Microsystems Inc., Buffalo Grove, IL, USA). Filter sets were GFP 10446222 in the case of compound FAMA, dSRED 10447079 in the cases of S-CY3A, CY3A and TAMRA, and CY5 10446366 in the cases of S-CY5.5A and S-CY5A. Previous to fluorescence imaging, the embryos were dechorionated (up to 72 hpf) and immobilized by hypothermia, rinsed three times with Danieau’s medium, and positioned latero-lateral (right lateral recumbency) on a single cavity glass slide and covered by a drop of agarose (0.1%). Then, using MetaMorph (Microscopy Automation and Image Analysis Software V.7.8.00, Molecular Devices, LLC., San Jose, CA, USA) and by manual delineation of the whole-body (WB) (up to 120 h) and yolk sac contours (up to 72 h) of the zebrafish embryos the fluorescence in the selected area was quantified as integrated fluorescence intensity (RFU). The RFU values of the non-yolk compartment (i.e., RoB: rest of body) was assessed by subtracting the yolk results from the corresponding integrated fluorescence intensities found in the WB.
# (§1) In order to determine the degree of tissue exposure following administration of the fluorescent compounds, we calculated the AUC as the pharmacokinetic parameter of the non-compartmental analysis. The area under a plot of the fluorescence intensity (RFUT) versus time is referred to as the area under the (zero moment) curve AUC. RFUT represents the relative amount of compound present in the ZFE by measuring the integrated fluorescence intensity of delineated contours in fluorescence images (Figure 2). The AUC was then determined by summing the incremental area of subsequent trapezoids. […] In some cases, observations were censored and excluded from the analysis, due to possible fluorescence quenching effect of compounds that remains at the site of the intrayolk microinjection.
# [2] = Intrayolk (IY) microinjection of two-cell stage zebrafish embryos (2 mg/kg), spatiotemporal fluorescence imaging and non-compartmental AUC; type: in vivo, zebrafish (Danio rerio); conditions: for accumulation in the gastrointestinal system / localization of the dye after IY microinjection: IY microinjection 2 mg/kg; for accumulation in the gastrointestinal system: after 96 hpf; for RD (IY), Relative Distribution: ratio of AUCRoB to AUCWB after microinjection into the yolk (2 mg/kg), 0.25–72 h; for localization of the dye after IY microinjection: first hours post injection
# Excerpt: Intrayolk microinjection (IY): zebrafish embryos at the two-cell stage were positioned in a Petri dish at room temperature. […] Needles were filled with compounds dissolved in the vehicle (DMSO/saline (1:1)), placed under the microscope, and using forceps, the tip was cut off in a manner to allow for a consistent volume to be injected. Afterwards, the embryos were transferred to 6-well plates. Control embryos were exposed to vehicle only. […] Previous to fluorescence imaging, the embryos were dechorionated (up to 72 hpf) and immobilized by hypothermia, rinsed three times with Danieau's medium, and positioned latero-lateral (right lateral recumbency) on a single cavity glass slide and covered by a drop of agarose (0.1%). Then, using MetaMorph (Microscopy Automation and Image Analysis Software V.7.8.00, Molecular Devices, LLC., San Jose, CA, USA) and by manual delineation of the whole-body (WB) (up to 120 h) and yolk sac contours (up to 72 h) of the zebrafish embryos the fluorescence in the selected area was quantified as integrated fluorescence intensity (RFU). The RFU values of the non-yolk compartment (i.e., RoB: rest of body) was assessed by subtracting the yolk results from the corresponding integrated fluorescence intensities found in the WB. In order to determine the degree of tissue exposure following administration of the fluorescent compounds, we calculated the AUC as the pharmacokinetic parameter of the non-compartmental analysis. The area under a plot of the fluorescence intensity (RFUT) versus time is referred to as the area under the (zero moment) curve AUC. RFUT represents the relative amount of compound present in the ZFE by measuring the integrated fluorescence intensity of delineated contours in fluorescence images (Figure 2). The AUC was then determined by summing the incremental area of subsequent trapezoids.
# [3] = Relative Exposure (RE10/2/72h): ratio of AUC immersion to AUC IY microinjection; type: in vivo, zebrafish (Danio rerio)
# Procedure: We then assessed by non-compartmental analysis the area from 0.25 to 72 h post exposure under the concentration–time curve (AUC0.25–72h) (Table 1) that represents well the relative tissue exposure to fluorescent compound across time. These absolute fluorescence intensities however cannot be comscriptpared across compounds as they depend critically on the respective quantum yields of the compounds and the device settings. To be able to compare the PK behavior of the compounds following different administration routes, we calculated the fluorescence-independent pharmacokinetic parameter Relative Exposure (RE10/2/72h), i.e., the ratio of AUC0.25–72h immersion (10 µM) to AUC0.25–72h IY microinjection (2 mg/kg). Separate RE values were calculated based on the whole body (WB), rest-of-body (RoB) and yolk fluorescence measurements (Table 2).
# as §1
# We further calculated the Relative Exposure (RE10/2) by comparing the […] after IY microinjection (2 mg/kg), as defined in Equation (2): (2) RE10/2/h=AUCImm/AUCInj.
# [4] = set-up: method as in PMID 34108572; conditions: experimentally determined before; cited from earlier work
# [5] = rest of body (non-yolk), intrayolk microinjection 2 mg/kg, 0.25 to 72 h
# [6] = yolk, intrayolk microinjection 2 mg/kg, 0.25 to 72 h
# [7] = whole body, intrayolk microinjection 2 mg/kg, 0.25 to 72 h
Molecule,AUC-RoB IMM (AUC0.25–72h) [1] [RFU × 10^7],AUC-WB IMM (AUC0.25–72h) [1] [RFU × 10^7],AUC-Yolk IMM (AUC0.25–72h) [1] [RFU × 10^7],accumulation in the gastrointestinal system [2],"RD (IY), Relative Distribution [2]","AUC-RoB IY (AUC0.25–72h) [2, 5] [RFU × 10^7]","AUC-Yolk IY (AUC0.25–72h) [2, 6] [RFU × 10^7]","RE-WB (Relative Exposure RE-WB10/2/72h) ([3]; zebrafish, in vivo)",Log D [4],localization of the dye after IY microinjection [2],"AUC-WB IY (AUC0.25–72h) [2, 7] [RFU × 10^7]","AUC-RoB IY (AUC0.25–72h) ([2]; zebrafish, in vivo, 2 mg/kg) [RFU × 10^7]","AUC-WB IY (AUC0.25–72h) ([2]; zebrafish, in vivo, 2 mg/kg) [RFU × 10^7]","AUC-Yolk IY (AUC0.25–72h) ([2]; zebrafish, in vivo, 2 mg/kg) [RFU × 10^7]",intrabody accumulation on longer incubations [1],"RE-RoB (Relative Exposure RE-RoB10/2/72h) ([3]; rest of body, AUC0.25–72h immersion (10 µM) / AUC0.25–72h IY microinjection (2 mg/kg))","RE-WB (Relative Exposure RE-WB10/2/72h) ([3]; whole body, AUC0.25–72h immersion (10 µM) / AUC0.25–72h IY microinjection (2 mg/kg))","RE-Yolk (Relative Exposure RE-Yolk10/2/72h) ([3]; yolk, AUC0.25–72h immersion (10 µM) / AUC0.25–72h IY microinjection (2 mg/kg))","intrabody accumulation after one hour of immersion followed by dechorionation ([1]; 1 h, dechorionated and rinsed)"
"C#CCNC(=O)c1ccc2c(c1)C(=O)OC21c2ccc(O)cc2Oc2cc(O)ccc21 [FAMA, Fam A, 5-Isomer]",0.84,1.17,0.36,accumulation,0.32,6.93,14.9,0.05,−0.14,,,,,,,,,,
"C#CCNC(=O)CCCCCN1C(=CC=CC2=[N+](C)c3ccc(S(=O)(=O)[O-])cc3C2(C)C)C(C)(C)c2cc(S(=O)(=O)[O-])ccc21.[K+] [S-CY3A, S-Cyanine 3]",2.67,4.56,1.89,accumulation,0.24,7.65,23.8,0.15,−1.96,stayed localized to the microinjection site,31.4,,,,,,,,
Rhodamine 6g 6-Isomer [Compound R6GA],,,,,,,,0.10,1.07,,,1.48,5.76,4.29,,,,,
S-Cyanine 5A [S-CY5A],0,0,0,,0.18,1.67,7.82,0,−0.72,stayed localized to the microinjection site,9.49,,,,,,,,
"C#CCNC(=O)c1ccc(-c2c3ccc(=[N+](C)C)cc-3oc3cc(N(C)C)ccc23)c(C(=O)[O-])c1 (single isomer, unassigned) [TAMRA]",2.78,7.76,4.98,accumulation,0.28,11.2,29.1,,0.46,,40.4,,,,further intrabody accumulation,0.25,0.19,0.17,
"C#CCNC(=O)CCCCCN1C(=CC=CC2=[N+](C)c3ccccc3C2(C)C)C(C)(C)c2ccccc21.[Cl-] [CY3A, Cyanine 3]",6.41,20.9,14.6,accumulation,0.17,3.21,15.7,1.11,1.73,,18.9,,,,further intrabody accumulation,,,,fast intrabody accumulation
"C#CCNC(=O)CCCCC[N+]1=C(C=CC=CC=C2N(C)c3ccc4c(S(=O)(=O)[O-])cc(S(=O)(=O)[O-])cc4c3C2(C)C)C(C)(C)c2c1ccc1c(S(=O)(=O)[O-])cc(S(=O)(=O)[O-])cc21.[K+].[K+].[K+] [S-CY5.5A, S-Cyanine 5.5]",0,0,0,,0.19,1.02,4.42,0,−1.68,stayed localized to the microinjection site,5.45,,,,,,,,
